Assay results from US20070249673A1, “Method for administering tolperisone” (priority 2006, published 2007).
Like-named read-outs stand apart in the source and are kept apart here.

Assays:
clinical = conditions: human, in vivo
Protocol: (§1) Dosing Regimen: Subjects in each cohort received tolperisone according to the following regimen.
(§2) Blood samples for the measurement of the plasma concentrations of tolperisone and metabolites M1 (4-hydroxymethyltolperisone) and M4 (4-carboxy-tolperisone) were collected at the times shown in Table 8.
(§3) Bioanalytical: Plasma concentrations of tolperisone and metabolites M1 and M4 were measured using a validated LC/MS/MS assay by Pharm-analyt Laboratory, Baden Austria. The limits of quantitation (LOQ) for tolperisone, Mi, and M4 in plasma were 0.2 ng/ML, and 0.01 μg/mL, respectively.
(§4) Pharmacokinetic Analyses: Pharmacokinetic parameters for tolperisone, M1, and M4 were calculated using non-compartmental analysis. Only plasma concentrations greater than or equal to the LOQ for the respective assay were used in the pharmacokinetic analyses. Actual blood sampling times were used in all pharmacokinetic analyses. […] All pharmacokinetic calculations were done using SAS® for Windows® Version 9.1.3.
(§5) The maximum plasma concentration (Cmax) and time to Cmax (Tmax) were taken directly from the data. The elimination rate constant, λz, was calculated as the negative of the slope of the terminal log-linear segment of the plasma concentration-time curve. The range of data to be used for each subject and treatment was determined by visual inspection of a semi-logarithmic plot of concentration versus time. Elimination half-life (t½) was calculated according to the following equation: [formula] Area under the curve to the final sample with a concentration greater than or equal to the LOQ [(AUC(0-t)] was calculated using the linear trapezoidal method and extrapolated to infinity [AUC(inf)] using: [formula] where Ctf is the final concentration≧LOQ.
(§6) The maximum plasma concentration (Cmax) and time to Cmax (Tmax) were taken directly from the data.
(§7) The maximum plasma concentration (Cmax) and time to Cmax (Tmax) were taken directly from the data. The elimination rate constant, λz, and half-life, t½, were calculated as described for the 0800 dose on Day 1 (above). Areas under the curve to the final sample with a concentration greater than or equal to the LOQ [(AUC(O-t)] and over the 6-hour dosing interval [AUC(0-6)] were calculated using the linear trapezoidal method.

[1] = human, in vivo
Protocol: The study was designed as an open-label, single dose, 4-way crossover study in 24 healthy male subjects. Randomization was performed according to the Latin Square Block design. Six subjects each were distributed to the four treatment arms. Each subject completed the study having received a single dose of 150 mg, 300 mg, and 450 mg of tolperisone once daily in a fasted state, and 150 mg of tolperisone with food. The wash-out period between study periods was at least seven days.
24 healthy male subjects were planned to participate in the study. […] The study group was composed of healthy male Caucasians, aged between 18-50 years, with a body mass index of 19-28 kg/m^2.
Tolperisone, 2-methyl-1-(4-methylphenyl)-3-(1-piperidinyl)-1-propanone, was supplied in coated tablets of 150 mg (“SPH-3047”, Sanochemia Pharmazeutica AG).
The dosage regimen was a four-way crossover. Within four treatment sequences, each subject received each of the following doses once.
Procedures from Day 1 until Day 3 were as follows (time points are detailed in the tabular schedule of trial procedures): • (i) An indwelling intravenous catheter was placed for blood sampling (without using heparin). • (ii) The study drug was administered (either 150, 300, or 450 mg of tolperisone) with 200 ml non-carbonated water in a standing position in a fasting state (intake of a standard breakfast not earlier than 90 minutes after dosing). For the food effect investigation, subjects received 150 mg tolperisone after food intake. • (iii) 12-lead ECG was taken both pre-dose, and at about 2 h post-dose (+15 min); ECG recordings were performed approximately 15 minutes before blood sampling. […] 64 blood samples for the determination of tolperisone and its main metabolite were drawn at the following times: pre-dose and 0.25, 0.5, 0.75, 1.0, 1.25, 1.5, 2, 3, 4, 8, 12, 24, 36, 48, and 72 hours post-administration (16 samples at each treatment).
On Day 1, meals were identical for all four study periods, with the exception of the “fed” study period during which a standardized breakfast was served 30 min prior to dosing.
In the non-fasted study period subjects received a standardized breakfast 30 min prior to dosing. The breakfast was a high fat breakfast according to FDA recommendations and was composed of the following food items: 2 slices of toasted white bread with butter, 2 eggs fried in butter, 2 slices of bacon, 2 ounces (1 oz=28.35 g) of “hash-browns” (fried, shredded potatoes), and 8 ounces of whole milk.
Assessment of Pharmacokinetics: For pharmacokinetic analysis, 7 ml of blood were collected by using Sarstedt monovettes (Sarstedt Ltd., Leicester, UK) or Vacutainers (Becton Dickenson).
The samples were immediately stored in ice water and centrifuged within 30 min following the collection of blood (1500×g, 10 minutes) at +4° C. temperature. The plasma from each sample was divided into two equal aliquots (approx. 2×1.5 ml), which were each transferred to a polypropylene tube, and identified by a coded label. The plasma samples were then stored in a freezer at a temperature of at least −70° C. until time of analysis.

[2] = human, in vivo; remark: listed apart in the source
Protocol: as §1, §2, §3, §4, §5, §6, §7

Cc1ccc(C(=O)C(C)CN2CCCCC2)cc1 (centres unmarked) [Tolperisone, 2-methyl-1-(4-methylphenyl)-3-(1-piperidinyl)-1-propanone]
AUC(0-t) (clinical; both, AUC (0-6)): 196 ± 129 ng·h/mL
AUC(0-t) (clinical; both, AUC (0-t)): 117 ± 93 ng·h/mL
AUC(0-inf) (clinical; both, AUC (inf)): 122 ± 97.5 ng·h/mL
Tmax (clinical; both): 0.88 h
half-life (clinical; both, mean elimination half-life): ~1.3 h
half-life (clinical; both, t½): 1.22 ± 0.24 h
AUC(0-t) (clinical; female, AUC(0-6)): 276 ± 151 ng·h/mL
AUC(0-t) (clinical; female, AUC(0-t)): 173 ± 152 ng·h/mL
AUC(0-inf) (clinical; female, AUC(inf)): 181 ± 161 ng·h/mL
Tmax (clinical; female): 1 h
half-life (clinical; female, t½): 1.17 ± 0.25 h
AUC(0-t) (clinical; male, AUC(0-6)): 162 ± 113 ng·h/mL
AUC(0-t) (clinical; male, AUC(0-t)): 93.1 ± 55.2 ng·h/mL
AUC(0-inf) (clinical; male, AUC(inf)): 96.3 ± 55.7 ng·h/mL
Tmax (clinical; male): 0.75 h
half-life (clinical; male, t½): 1.24 ± 0.25 h
AUC0-tlast ([1]; po, 150 mg): 54.0 ± 53.2 ng·h/mL
AUC0-oo, geometric mean for the ratio 150 mg fed/150 mg fasted, point estimate ([1]; male): 1.87
AUC0-tlast, geometric mean for the ratio 150 mg fed/150 mg fasted, point estimate ([1]; male): 1.92
Cmax, geometric mean for the ratio 150 mg fed/150 mg fasted, point estimate ([1]; male): 1.18
AUC0-oo ([1]; male, po, 150 mg): 55.4 ± 53.4 ng·h/mL
Cmax ([1]; male, po, 150 mg): 36.1 ± 38.4 ng/mL
Tmax ([1]; male, po, 150 mg): 0.66 h
t1/2 ([1]; male, po, 150 mg): 2.06 ± 0.43 h
mean AUC(0-6) under fasted conditions higher than fed ([2]; both): 127%
mean Cmax under fasted conditions higher than fed ([2]; both): 213%
t½ ([2]; both): 1.59 ± 0.63 (10) h
t½ ([2]; female): 1.53 ± 0.08 (3) h
t½ ([2]; male): 1.62 ± 0.77 (7) h
